# Reference: PMC6713104, “New peptide derived antimalaria and antimicrobial agents bearing sulphonamide moiety” (Journal of Enzyme Inhibition and Medicinal Chemistry, 2019)
# Read-outs that look alike come from different tables or passages of the source.
# Key:
# [1] = system: K. pneumoniae; assay: Antimicrobial MIC, agar cup diffusion; format: cell-based; conditions: Klebsiella pneumoniae, read-out: MIC (minimum inhibitory concentration)
# [2] = system: P. falciparum strain W2; assay: In vitro antimalarial assay; format: cell-based; conditions: Plasmodium falciparum, W2; P. falciparum, 48 h, >99% of parasites inhibited from developing to schizonts
# [3] = system: Plasmodium berghei infection in mice; assay: In vivo antimalaria test; conditions: P. berghei infected mice; for inhibition in vivo at 100 mg/kg / inhibition in vivo at 200 mg/kg: Plasmodium berghei, oral
# Procedure: Experimental Design and Treatment of Mice. Methods of Peter et al.[30] and Kalra et al.[31] for antiplasmodial assay against Plasmodium berghei infection in mice with some modifications were employed. About eighty infected mice were randomly divided into five groups, each having […] mice. The inoculum was prepared from a donor mouse with rising parasitemia of 60.42%. After 7 days of infection, animals begin to receive treatment (100 and 200 mg/kg b wt.) of the synthesized compounds (7a–7n) for 12 days with constant check of the percentage of parasitemia after a 4-day interval. Artemisinin (100 and 200 mg/kg body weight.) was given to the other mice in group three as positive control, group four was not treated and group five was not infected. All the compounds and the drugs were given orally by using a standard intragastric tube. For all parasitemia determination, blood samples were collected from tail snip of each mouse and thin smears prepared and stained with 10% Giemsa solution. The uniform fields of each stained slide (for each mouse) were examined under microscope with an oil immersion objective of 100X magnification power and average percent of parasitemia was determined.
# To determine the in vivo activity, the compounds were tested against P. berghei NK(65 Strain) infection mice., the animals were obtained from Nigeria institute for Trypanosoma and onchocercarioses Research (NTIR) Vom, Plateau State Nigeria. The permission and approval for the use of animals in this experiment were granted by the Animal Ethics Committee, Federal College of Vetrenary Medical Laboratory, Vom, Plateau State. Method of Peter et al.[30], for antiplasmodial assay against P. berghei in mice with some modification were employed. Artemisimin was used as treated control of the experiments. The percentage inhibition of parasite multiplication was calculated comparing the treated group with untreated group by means of the following formula[39] [(A − B)/A] × 100; where A = parasitaemia in the untreated group and B = parasitemia in the test group. […] Most of the compounds were active against P. berghei after 7 days post-infection by reducing the parasiteamia by at least 40% when in a dose of 100 mg/kg (Table 5). The inhibition of parasitaemia increased on 12th day post infection for almost all the compounds. […] However in consideration of the compounds ability to inhibit parasitaemia to the control drug. […] These compounds should be considered for further studies because of its promising activities.
# [4] = system: E. coli; assay: Antimicrobial MIC, agar cup diffusion; format: cell-based; conditions: Escherichia coli, read-out: MIC (minimum inhibitory concentration)
# [5] = system: B. subtilis; assay: Antimicrobial MIC, agar cup diffusion; format: cell-based; conditions: for MIC: Bacillus subtilis, B. subtilis, read-out: MIC (minimum inhibitory concentration)
# [6] = system: S. typhi; assay: Antimicrobial MIC, agar cup diffusion; format: cell-based; conditions: Salmonella enterica, read-out: MIC (minimum inhibitory concentration)
# [7] = system: C. albicans; assay: Antimicrobial MIC, agar cup diffusion; format: cell-based; conditions: Candida albicans, read-out: MIC (minimum inhibitory concentration)
# [8] = system: A. niger; assay: Antimicrobial MIC, agar cup diffusion; format: cell-based; conditions: Aspergillus niger, read-out: MIC (minimum inhibitory concentration)
# [9] = Haematological analysis; format: in vivo, mice
# Text: (§1) Twenty-four hours before the injecting the compounds, the blood sample of five mice was taken and it was also taken after the last day of treatment, the animals were sacrificed by cervical dislocation and the blood samples were collected by heart puncture. The blood samples for haematological parameters (red blood cell (RBC) count, white blood cell (WBC) count, packed cell volume (PCV), and hemoglobin (HGB)) were collected into EDTA bottles and analyzed using an automated machine (Automated CBC Analyzer: Sysmex KX-21).
# The blood samples for haematological parameters (red blood cell (RBC) count, white blood cell (WBC) count, packed cell volume (PCV), and haemoglobin (HGB)) were collected into EDTA bottles and analyzed using an automated machine (Automated CBC Analyzer: Sysmex KX-21) (Table 8). From the analysis, even though there is a decrease in the value of RBC, PCV and HB, it is observed that there is no significant changes in the parameters that were analyzed for the control and the test compounds.
# [10] = Renal or kidney function test; format: in vivo; conditions: mice, 10 mg/kg
# Text: as §1, with “KX-21). Kidney function tests carried out with the blood of the rats fed with the sulfonamide derivatives were, creatinine and albunim. The method reported by Kaplan and Tengv[33] was used in the determination of creatinine.” for “KX-21).”
# [11] = Liver function tests; format: in vivo; conditions: mice, 10 mg/kg
# Text: as §1, with “KX-21). The liver function tests carried out with the blood of the rats fed with the sulfonamide derivatives were aspartate aminotransperase (AST), alanine transaminase (ALT) and alkaline phosphatase (ALP). Standard laboratory procedure according to Reitman and Franke[32] was used for the determination of parameters.” for “KX-21).”
# [12] = 168 h, read-out: % inhibition 7 days post-treatment (100 mg/kg), day 7
# [13] = 168 h, read-out: % inhibition 7 days post-treatment (200 mg/kg), day 7
# [14] = 288 h, read-out: % inhibition 12 days post-treatment (100 mg/kg), day 12
# [15] = 288 h, read-out: % inhibition 12 days post-treatment (200 mg/kg), day 12
structure (smiles),measurement,setting,value
"CC(NS(=O)(=O)c1ccccc1)C(=O)NCC(=O)Nc1ccccc1 (stereo not drawn) [Compound 7f, N-(2-oxo-2-(phenylamino)ethyl)-2-(phenylsulfonamido)propanamide]",MIC,[1],5010 µg/mL
same,MIC,[2],2.32 µM
same,inhibition in vivo at 100 mg/kg,[3]; [12],38.2%
same,inhibition in vivo at 200 mg/kg,[3]; [13],71%
same,inhibition in vivo at 100 mg/kg,[3]; [14],41.9%
same,inhibition in vivo at 200 mg/kg,[3]; [15],73.3%
same,MIC,[4],131 µg/mL
same,MIC,[5],155 µg/mL
same,activity against Bacillus compared with ciprofloxacin,[5]; in words,greater activity against Bacillus than ciprofloxacin
same,MIC,[6],4680 µg/mL
same,MIC,[7],214 µg/mL
same,MIC,[8],105 µg/mL
"O=C(O)c1cn(C2CC2)c2cc(N3CCNCC3)c(F)cc2c1=O [CIP, Ciprofloxacin, reference compound]",MIC,[1],113 µg/mL
same,MIC,[4],131 µg/mL
same,MIC,[5],184 µg/mL
same,MIC,[6],128 µg/mL
"CC(NS(=O)(=O)c1ccccc1)C(=O)NCC(=O)Nc1cccc(Cl)c1 (stereo not drawn) [Compound 7a, N-(2-((3-chlorophenyl)amino)-2-oxoethyl)-2-(phenylsulfonamido)propanamide]",MIC,[1],251 µg/mL
same,MIC,[2],0.37 µM
same,inhibition in vivo at 100 mg/kg,[3]; [12],36.2%
same,inhibition in vivo at 200 mg/kg,[3]; [13],52.1%
same,inhibition in vivo at 100 mg/kg,[3]; [14],50%
same,inhibition in vivo at 200 mg/kg,[3]; [15],61.4%
same,MIC,[4],489 µg/mL
same,MIC,[5],219 µg/mL
same,MIC,[6],199 µg/mL
same,MIC,[7],56.1 µg/mL
same,MIC,[8],1580 µg/mL
"Cc1ccc(S(=O)(=O)NC(C)C(=O)NCC(=O)Nc2cccc(F)c2)cc1 (stereo not drawn) [Compound 7j, N-(2-((3-fluorophenyl)amino)-2-oxoethyl)-2–(4-methylphenylsulfonamido)propanamide]",MIC,[1],83 µg/mL
same,HB,[9]; After treatment,10.0 g/dL
same,PCV,[9]; After treatment,34%
same,RBC,[9]; After treatment,6.5 × 10^6 mm^3
same,WBC,[9]; After treatment,9.1 × 10^3 mm^3
same,HB,[9]; Before treatment,13.5 g/dL
same,PCV,[9]; Before treatment,39%
same,RBC,[9]; Before treatment,7.1 × 10^6 mm^3
same,WBC,[9]; Before treatment,8.0 × 10^3 mm^3
same,MIC,[2],0.88 µM
same,ability to inhibit parasitaemia compared to the control drug,[3]; in words,almost the same or better activity compared to the artemisinin
same,inhibition in vivo at 100 mg/kg,[3]; [12],77.9%
same,inhibition in vivo at 200 mg/kg,[3]; [13],77.4%
same,inhibition in vivo at 100 mg/kg,[3]; [14],82.7%
same,inhibition in vivo at 200 mg/kg,[3]; [15],73.5%
same,Albumin,[10]; After,4.0 g/dL
same,Creatinine,[10]; After,0.3 mg/dL
same,Albumin,[10]; Before,3.9 g/dL
same,Creatinine,[10]; Before,0.4 mg/dL
same,MIC,[4],275 µg/mL
same,MIC,[5],245 µg/mL
same,MIC,[6],129 µg/mL
same,MIC,[7],371 µg/mL
same,ALT,[11]; After,25.5 µ/L
same,AST,[11]; After,60.0 µ/L
same,Bilirubin,[11]; After,0.2 mg/dL
same,T.P.,[11]; After,5.8 g/dL
same,ALT,[11]; Before,26.3 µ/L
same,AST,[11]; Before,65.0 µ/L
same,Bilirubin,[11]; Before,0.4 mg/dL
same,T.P.,[11]; Before,6.0 g/dL
"C[C@@H]1CC[C@H]2[C@@H](C)C(=O)O[C@@H]3O[C@@]4(C)CC[C@@H]1[C@]32OO4 [Artemisinin, reference compound]",MIC,[2],0.72 µM
same,inhibition in vivo at 100 mg/kg,[3]; [12],75.7%
same,inhibition in vivo at 200 mg/kg,[3]; [13],78.9%
same,inhibition in vivo at 100 mg/kg,[3]; [14],86.2%
same,inhibition in vivo at 200 mg/kg,[3]; [15],82.3%
